Patent US8399480B2, “Hydroxymethyl pyrrolidines as beta 3 adrenergic receptor agonists” (Merck Sharp & Dohme Corp., priority 2008, dated 2013)
pEC50: −log10 of the molar value.

The compounds below were run against T1, human β3 adrenergic receptor (Homo sapiens, UniProt P13945) (assay: Functional assay: cAMP production (LANCE TR-FRET) in CHO cells stably transfected with cloned β3 adrenergic receptor). Conditions: Table 4; human β3 functional activity; read-out: Human β Binding.
T1 construct: expressed in transfected cells; host or cells: Chinese hamster ovary (CHO) cells, stably transfected
Assay type: cell-based
Method in brief: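 Agonist-stimulated cAMP in CHO cells stably expressing human β3 receptor, 6,000 cells per well in HBSS/HEPES/0.1% BSA with 0.6 mM IBMX, 30 min at room temperature. LANCE TR-FRET readout converted to cAMP via standard curve; maximal stimulation defined with isoproterenol.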

T1 sequence (P13945 whole entry): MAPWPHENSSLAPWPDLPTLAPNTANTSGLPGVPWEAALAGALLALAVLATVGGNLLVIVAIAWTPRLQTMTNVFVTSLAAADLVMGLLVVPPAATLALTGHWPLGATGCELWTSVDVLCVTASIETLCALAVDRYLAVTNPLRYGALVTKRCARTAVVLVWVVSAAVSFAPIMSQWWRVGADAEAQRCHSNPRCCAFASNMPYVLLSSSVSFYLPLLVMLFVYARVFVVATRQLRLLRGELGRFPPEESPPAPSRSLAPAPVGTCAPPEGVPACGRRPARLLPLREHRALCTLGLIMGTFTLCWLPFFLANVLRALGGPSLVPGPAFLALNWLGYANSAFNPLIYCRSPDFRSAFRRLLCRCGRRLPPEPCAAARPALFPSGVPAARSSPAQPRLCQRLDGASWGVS

Row | SMILES | pEC50
1 | O=C(Cn1nc2ccccc2n1)Nc1ccc(C[C@@H]2CC[C@H]([C@H](O)c3ccccc3)N2)cc1 [Example 5] | 8.00 to 9.00
2 | Cn1nnnc1CC(=O)Nc1ccc(C[C@@H]2CC[C@H]([C@H](O)c3ccccc3)N2)cc1 [Example 76] | 7.00 to 7.96
3 | O=C(Nc1ccc(C[C@@H]2CC[C@H]([C@H](O)c3ccccc3)N2)cc1)c1ccccc1-c1nc2ccccc2s1 [Example 14] | 6.00 to 7.00
4 | O=C(Cn1ncc2ccccc2c1=O)Nc1ccc(C[C@@H]2CC[C@H]([C@H](O)c3ccccc3)N2)cc1 [Example 49] | 8.00 to 9.00
5 | Cc1cn(CC(=O)Nc2ccc(C[C@@H]3CC[C@H]([C@H](O)c4ccccc4)N3)cc2)nn1 [Example 79] | 8.00 to 9.00
6 | O=C(Cn1cncn1)Nc1ccc(C[C@@H]2CC[C@H]([C@H](O)c3ccccc3)N2)cc1 [Example 80] | 7.00 to 7.96

The next lines start with the values.

Row | pEC50 | SMILES
7 | 8.00 to 9.00 | O=C(CN1CCCCC1=O)Nc1ccc(C[C@@H]2CC[C@H]([C@H](O)c3ccccc3)N2)cc1 [Example 89]
8 | 6.00 to 7.00 | O=C(Cn1ccc(=O)nc1)Nc1ccc(C[C@@H]2CC[C@H]([C@H](O)c3ccccc3)N2)cc1 [Example 66]
9 | 8.00 to 9.00 | O=C(Nc1ccc(C[C@@H]2CC[C@H]([C@H](O)c3ccccc3)N2)cc1)C1CCCN1c1cccc(Br)c1 (some centres unmarked) [Example 38]
10 | 8.00 to 9.00 | Cc1nonc1CC(=O)Nc1ccc(C[C@@H]2CC[C@H]([C@H](O)c3ccccc3)N2)cc1 [Example 82]

Same assay, conditions: Table 5; read-out: Human β3 Functional

Row | SMILES | pEC50
11 | CC(C(=O)Nc1ccc(C[C@@H]2CC[C@H]([C@H](O)c3ccccc3)N2)cc1)n1nccn1 (single isomer, unassigned) [Example 178] | 8.00 to 9.00
12 | O=C(Nc1ccc(C[C@@H]2CC[C@H]([C@H](O)c3ccccc3)N2)cc1)C1CCc2ccccc2C1 (single isomer, unassigned) [Example 108] | 6.00 to 7.00
13 | CCC(C(=O)Nc1ccc(C[C@@H]2CC[C@H]([C@H](O)c3ccccc3)N2)cc1)n1cccn1 (single isomer, unassigned) [Example 219] | 8.00 to 9.00
14 | Cc1nnc2n1CCC2C(=O)Nc1ccc(C[C@@H]2CC[C@H]([C@H](O)c3ccccc3)N2)cc1 (single isomer, unassigned) [Example 124] | 8.00 to 9.00
15 | O=C(O)c1nc2c(s1)CCC2C(=O)Nc1ccc(C[C@@H]2CC[C@H]([C@H](O)c3ccccc3)N2)cc1 (single isomer, unassigned) [Example 143] | 7.00 to 7.96
16 | Cc1cc(C(C)C(=O)Nc2ccc(C[C@@H]3CC[C@H]([C@H](O)c4ccccc4)N3)cc2)[nH]n1 (single isomer, unassigned) [Example 185] | 8.00 to 9.00
17 | CC(C(=O)Nc1ccc(C[C@@H]2CC[C@H]([C@H](O)c3ccccc3)N2)cc1)n1nncc1C(N)=O (single isomer, unassigned) [Example 198] | 7.00 to 7.96
18 | O=C(Nc1ccc(C[C@@H]2CC[C@H]([C@H](O)c3ccccc3)N2)cc1)C1CCc2sc(-c3ccc(F)cc3)nc21 (single isomer, unassigned) [Example 122] | 6.00 to 7.00
19 | COc1ncncc1C(C)C(=O)Nc1ccc(C[C@@H]2CC[C@H]([C@H](O)c3ccccc3)N2)cc1 (single isomer, unassigned) [Example 212] | 7.00 to 7.96
20 | O=C(Nc1ccc(C[C@@H]2CC[C@H]([C@H](O)c3ccccc3)N2)cc1)C1CCc2cn[nH]c21 (single isomer, unassigned) [Example 136] | 7.00 to 7.96

Now from value to compound:

Row | pEC50 | SMILES
21 | > 9.00 | O=C(Nc1ccc(C[C@@H]2CC[C@H]([C@H](O)c3ccccc3)N2)cc1)C1CCc2cccnc21 (single isomer, unassigned) [Example 133]
22 | 7.00 to 7.96 | CC(C(=O)Nc1ccc(C[C@@H]2CC[C@H]([C@H](O)c3ccccc3)N2)cc1)n1cc(C(=O)O)nn1 (single isomer, unassigned) [Example 191]
23 | 7.00 to 7.96 | Cc1cc(C(C)C(=O)Nc2ccc(C[C@@H]3CC[C@H]([C@H](O)c4ccccc4)N3)cc2)[nH]n1 (single isomer, unassigned) [Example 184]
24 | 8.00 to 9.00 | CC(C(=O)Nc1ccc(C[C@@H]2CC[C@H]([C@H](O)c3ccccc3)N2)cc1)n1cccnc1=O (single isomer, unassigned) [Example 160]
25 | 7.00 to 7.96 | COc1ncncc1C(C)C(=O)Nc1ccc(C[C@@H]2CC[C@H]([C@H](O)c3ccccc3)N2)cc1 (single isomer, unassigned) [Example 213]
26 | 5.52 to 6.00 | O=C(Nc1ccc(C[C@@H]2CC[C@H]([C@H](O)c3ccccc3)N2)cc1)C1CCCn2ccnc21 (single isomer, unassigned) [Example 154]
27 | 7.00 to 7.96 | COC(=O)c1cn(C(C)C(=O)Nc2ccc(C[C@@H]3CC[C@H]([C@H](O)c4ccccc4)N3)cc2)nn1 (single isomer, unassigned) [Example 189]

Same assay, conditions: Table 6; read-out: Human β3 Functional

Row | pEC50 | SMILES
28 | 6.00 to 7.00 | Nc1nc2c(s1)CCCC2C(=O)Nc1ccc(CC2CCC(C(O)c3ccccc3)N2)cc1 (single isomer, unassigned) [Example 227]

Same assay, conditions: Table 7; β3AR-cAMP; read-out: Human β3 Functional

Row | pEC50 | SMILES
29 | 6.00 to 7.00 | O=S(=O)(Cc1ccncc1)Nc1ccc(C[C@@H]2CC[C@H]([C@H](O)c3ccccc3)N2)cc1 [Example 250]
30 | 6.00 to 7.00 | O=S(=O)(Cc1ccccn1)Nc1ccc(C[C@@H]2CC[C@H]([C@H](O)c3ccccc3)N2)cc1 [Example 248]
31 | 7.00 to 7.96 | O=S(=O)(Nc1ccc(C[C@@H]2CC[C@H]([C@H](O)c3ccccc3)N2)cc1)c1ccc2ncsc2c1 [Example 239]

Same assay, conditions: Table 9; read-out: Human β^3 Functional

Row | pEC50 | SMILES
32 | 6.00 to 7.00 | CC(C(=O)Nc1ccc(C[C@@H]2CC[C@H]([C@H](O)c3ccccc3)N2)cc1)N(C)C(=O)c1ccccn1 (some centres unmarked) [Example 265]
33 | 7.00 to 7.96 | CC(NS(=O)(=O)Cc1ccccc1)C(=O)Nc1ccc(C[C@@H]2CC[C@H]([C@H](O)c3ccccc3)N2)cc1 (some centres unmarked) [Example 273]
34 | > 9.00 | CC(NC(=O)c1ccccc1)C(=O)Nc1ccc(C[C@@H]2CC[C@H]([C@H](O)c3ccccc3)N2)cc1 (some centres unmarked) [Example 272]

Same assay, conditions: Table 10; β3AR-cAMP; read-out: Human β3 Functional

Row | pEC50 | SMILES
35 | 7.00 to 7.96 | Nc1nc2c(s1)CCC2C(=O)Nc1ccc(CC2CCC(C(O)c3cccc(F)c3)N2)cc1 (single isomer, unassigned) [Example 276]

Same assay, conditions: Table 12; read-out: Human β3 Functional

Row | pEC50 | SMILES
36 | 7.00 to 7.96 | Nc1nc2c(s1)CCC2C(=O)Nc1ccc(CC2CCC(C(O)c3ccc(F)c(F)c3)N2)cc1 (single isomer, unassigned) [Example 288]
37 | 7.00 to 7.96 | Nc1nc2c(s1)CCC2C(=O)Nc1ccc(CC2CCC(C(O)c3ccc(F)c(F)c3)N2)cc1 (single isomer, unassigned) [Example 291]

Same assay, conditions: given as a range; cAMP, CHO cells; read-out: human β3 functional activity

Row | pEC50 | SMILES
38 | 7.00 to 7.96 | C[C@H](NS(=O)(=O)c1ccc(F)cc1)C(=O)Nc1ccc(C[C@@H]2CC[C@H]([C@H](O)c3ccccc3)N2)cc1 [Example 264, (2S)-2-{[(4-Fluorophenyl)sulfonyl]amino}-N-[4-({(2S,5R)-5-[(R)-hydroxy(phenyl)methyl]pyrrolidin-2-yl}methyl)phenyl]propanamide]
39 | 8.00 to 9.00 | O=S(=O)(Nc1ccc(C[C@@H]2CC[C@H]([C@H](O)c3ccccc3)N2)cc1)c1ccc(-c2nc(-c3ccc(C(F)(F)F)cc3)cs2)cc1 [Example 233, N-[4-({(2S,5R)-5-[(R)-hydroxy(phenyl)methyl]pyrrolidin-2-yl}methyl)phenyl]-4-{4-[4-(trifluoromethyl)phenyl]-1,3-thiazol-2-yl}benzenesulfonamide]

Same assay, conditions: human β3 functional activity, shown as ranges; Table 13; read-out: Human β3 Functional

Row | pEC50 | SMILES
40 | 7.00 to 7.96 | CC(C(=O)Nc1ccc(CC2CCC(C(O)c3cccc(Cl)c3)N2)cc1)c1cscn1 (single isomer, unassigned) [Example 303]

Same assay, conditions: human β3 functional activity, shown as ranges; Table 14; read-out: Human β3 Functional

Row | pEC50 | SMILES
41 | > 9.00 | Nc1nc2c(s1)CCC2C(=O)Nc1ccc(CC2CCC(C(O)c3cccc(F)c3)N2)cc1 (single isomer, unassigned) [Example 306]
